From patent US20200079765A1, “SUBSTITUTED HETEROARYL PYRROLONES AND SALTS THEREOF AND USE THEREOF AS HERBICIDAL ACTIVE SUBSTANCES” (Bayer CropScience Aktiengesellschaft, priority 2016, published 2020)

Assays:
Stellaria media [1] = assay: Herbicidal pre-emergence action (Experimental Part 2, D); type: in vivo; settings: pre-emergence (Part 2), application rate 320 g/ha, scored visually after about 3 weeks
Text: (§1) Seeds of mono- and dicotyledonous weed plants were placed in plastic pots in sandy loam soil (doubly sown with in each case one species of mono- or dicotyledonous weed plants per pot) and covered with soil. The compounds of the invention, formulated in the form of wettable powders (WP) or as emulsion concentrates (EC), were then applied onto the surface of the covering soil as aqueous suspension or emulsion with addition of 0.5% additive at a water application rate of 600 liters per hectare (converted). After the treatment, the pots are placed in a greenhouse and kept under good growth conditions for the trial plants. After about 3 weeks, the effect of the preparations was scored visually in comparison with untreated controls as percentages. For example, 100% activity=the plants have died, 0% activity=like control plants. Tables D1 to D8 below show the effects of selected compounds of the general formula (I) according to Tables I.1 to I.116 on various harmful plants and an application rate corresponding to 1280 g/ha or 320 g/ha, which were obtained by the experimental procedure mentioned above.

Setaria viridis [2] = assay: as above; type: in vivo; settings: pre-emergence (Part 2), scored visually after about 3 weeks
Text: as §1

Matricaria inodora [3] = assay: as above; type: in vivo; settings: pre-emergence (Part 2), application rate 320 g/ha, scored visually after about 3 weeks
Text: as §1

Abutilon theophrasti [4] = assay: as above; type: in vivo; settings: pre-emergence (Part 2), application rate 320 g/ha, scored visually after about 3 weeks
Text: as §1

Poa annua [5] = assay: as above; type: in vivo; settings: pre-emergence (Part 2), application rate 320 g/ha, scored visually after about 3 weeks
Text: as §1

Amaranthus retroflexus [6] = assay: as above; type: in vivo; settings: pre-emergence (Part 2), application rate 320 g/ha, scored visually after about 3 weeks
Text: as §1

Lolium rigidum [7] = assay: as above; type: in vivo; settings: pre-emergence (Part 2), scored visually after about 3 weeks
Text: as §1

Echinochloa crus-galli [8] = assay: as above; type: in vivo; settings: pre-emergence (Part 2), application rate 320 g/ha, scored visually after about 3 weeks
Text: as §1

photosystem II (PS II) = target: T1, photosystem II (PS II) (Spinacia oleracea, UniProt P69560); assay: Measurement of the PS II activity in thylakoid membranes (DCPIP reduction, Experimental Part 3, Table E1); type: biochemical; settings: spinach thylakoid membranes
T1 construct: the chloroplasts were osmotically ruptured and the thylakoid membranes were then obtained by centrifugation; from tissue; host or cells: thylakoid membranes from fresh spinach leaves
Experimental: Cooled fresh spinach leaves were comminuted and homogenized in 50 mM phosphate buffer, pH 6.8. 10 mM KCl, 0.34 M sucrose (sucrose buffer) (blender, 1 g of plant material/ml). The homogenate was subsequently filtered through 4 layers of Miracloth and the chloroplasts were isolated by centrifugation, i.e. 10 min of centrifugation at 4400×g (4° C.). The sediment was suspended in 25 ml of sucrose buffer and re-centrifuged for 10 min at 4400×g (4° C.). The sediment was then suspended in 40 ml of 50 mM phosphate buffer, pH 6.8, 10 mM KCl, without sucrose. In this step, the chloroplasts were osmotically ruptured and the thylakoid membranes were then obtained by centrifugation (10 min, 4400×g, 4° C.). The membrane sediment was finally suspended in about 20 ml of 50 mM phosphate buffer, pH 6.8, 10 mM KCl. Following protein determination and activity determination, the membrane suspension was divided into aliquots and frozen in liquid nitrogen. The aliquots were stored at −80° C. Under these conditions, the photosystem II preparation was storage stable for at least three months. The activity determination of photosystem II (PS II) was then carried out using the following test principle: The electron transfer from PS II to an artificial electron acceptor, 2,6-dichlorophenolindophenol (DCPIP), was measured with exposure to light. The concentration of the blue oxidized form of DCPIP was determined spectrophotometrically at wavelength λ=595 nm. […] The activity determination was carried out in microtiter plates (96 cavities) in a reaction volume of 200 μl. Here, 155 μl of dilute membrane suspension were initially charged in 50 mM of phosphate buffer, pH 6.8, 10 mM KCl. Depending on the activity of the PS II preparation, the dilution was adjusted such that the measurement of the decrease in absorption (λ=595 nm) was linear for at least 10 min. In each case 5 μl solution of the test compounds of a concentration of 100 μM in DMSO were added to the enzyme suspension; controls contained 5 μl DMSO; the final concentration of DMSO in the reaction batch was thus 2.5% (v/v); this concentration had no adverse effect on the enzymatic activity. On each microtiter plate, a known PS II inhibitor, for example metribuzin, was used as standard, which allowed the quality of the PS II test to be assessed. The reaction was started by addition of 40 μl DCPIP solution (600 μM in distilled water); the final concentration of DCPIP was 120 μM. Measurement of absorption was carried out over a period of 10 min at 22° C. and with exposure to light. Using metribuzin as comparative substance, the results for the efficacy of the compounds of the general formula (I) at 100 μM are stated in the table below using the following classification: ++++ (inhibition≥90%), +++ (90%>inhibition≥70%), ++ (70%>inhibition≥50%), + (50%>inhibition≥30%).
Effects of selected compounds of the general formula (I) according to the following table E1: […]

Stellaria media [9] = assay: Herbicidal post-emergence action (Experimental Part 2, C); type: in vivo; settings: post-emergence (Part 2), application rate 320 g/ha, rated visually after about 3 weeks
Experimental: (§2) Seeds of mono- and dicotyledonous weed plants were placed in plastic pots in sandy loam soil (doubly sown with in each case one species of mono- or dicotyledonous weed plants per pot), covered with soil and cultivated in a greenhouse under controlled growth conditions. 2 to 3 weeks after sowing, the test plants were treated at the one-leaf stage. The compounds of the invention, formulated in the form of wettable powders (WP) or as emulsion concentrates (EC), were applied onto the green parts of the plants as aqueous suspension or emulsion with addition of 0.5% additive at a water application rate of 600 liters per hectare (converted). After the test plants had been kept in the greenhouse under optimum growth conditions for about 3 weeks, the activity of the preparations was rated visually in comparison to untreated controls. For example, 100% activity=the plants have died, 0% activity=like control plants. Tables C1 to C8 below show the effects of selected compounds of the general formula (I) according to Tables I.1 to I.116 on various harmful plants and an application rate corresponding to 1280 g/ha or 320 g/ha, which were obtained by the experimental procedure mentioned above.

Setaria viridis [10] = assay: as above; type: in vivo; settings: post-emergence (Part 2), application rate 320 g/ha, rated visually after about 3 weeks
Experimental: as §2

Matricaria inodora [11] = assay: as above; type: in vivo; settings: post-emergence (Part 2), application rate 320 g/ha, rated visually after about 3 weeks
Experimental: as §2

Abutilon theophrasti [12] = assay: as above; type: in vivo; settings: post-emergence (Part 2), application rate 320 g/ha, rated visually after about 3 weeks
Experimental: as §2

Poa annua [13] = assay: as above; type: in vivo; settings: post-emergence (Part 2), application rate 320 g/ha, rated visually after about 3 weeks
Experimental: as §2

Amaranthus retroflexus [14] = assay: as above; type: in vivo; settings: post-emergence (Part 2), application rate 320 g/ha, rated visually after about 3 weeks
Experimental: as §2

Lolium rigidum [15] = assay: as above; type: in vivo; settings: post-emergence (Part 2), rated visually after about 3 weeks
Experimental: as §2

Echinochloa crus-galli [16] = assay: as above; type: in vivo; settings: post-emergence (Part 2), rated visually after about 3 weeks
Experimental: as §2

Structure (SMILES) | Stellaria media, herbicidal activity (Stellaria media [1]) | Setaria viridis, herbicidal activity (Setaria viridis [2]; application rate 320 g/ha) | Matricaria inodora, herbicidal activity (Matricaria inodora [3]) | Abutilon theophrasti, herbicidal activity (Abutilon theophrasti [4]) | Poa Annua, herbicidal activity (Poa annua [5]) | Amaranthus retroflexus, herbicidal activity (Amaranthus retroflexus [6]) | Lolium rigidum, herbicidal activity (Lolium rigidum [7]; application rate 320 g/ha) | Echinochloa crus-galli, herbicidal activity (Echinochloa crus-galli [8]) | Effect (inhibition of PS II activity) (photosystem II (PS II)) | Stellaria media, herbicidal activity (Stellaria media [9]) | Setaria viridis, herbicidal activity (Setaria viridis [10]) | Matricaria inodora, herbicidal activity (Matricaria inodora [11]) | Abutilon theophrasti, herbicidal activity (Abutilon theophrasti [12]) | Poa Annua, herbicidal activity (Poa annua [13]) | Amaranthus retroflexus, herbicidal activity (Amaranthus retroflexus [14]) | Lolium rigidum, herbicidal activity (Lolium rigidum [15]; application rate 320 g/ha) | Echinochloa crus-galli, herbicidal activity (Echinochloa crus-galli [16]; application rate 320 g/ha) | Lolium rigidum, herbicidal activity (Lolium rigidum [15]; application rate 1280 g/ha) | Echinochloa crus-galli, herbicidal activity (Echinochloa crus-galli [16]; application rate 1280 g/ha) | other results
CC1=CC(O)N(c2cc(C(C)(C)C)on2)C1=O (stereo not drawn) [I.2-162, 5-hydroxy-3-methyl-1-(5-tert-butyl-1,2-isoxazol-3-yl)-1,5-dihydro-2H-pyrrol-2-one] | 100% | 100% | 100% | 100% | 100% | 100% | 90% | 100% | ++++ (inhibition≥90%) | 100% | 100% | 100% | 100% | 100% | 100% | 90% | 100% | – | – | –
CC1=CC(O)N(c2noc(C(C)(C)C)c2C)C1=O (stereo not drawn) [I.2-177] | 100% | 100% | 100% | 100% | 100% | 90% | 90% | 100% | ++++ (inhibition≥90%) | 100% | – | 100% | 100% | 100% | 100% | 90% | 100% | – | – | –
CC1=CC(O)N(c2cc(C(C)(C)C)no2)C1=O (stereo not drawn) [I.2-290, 5-hydroxy-3-methyl-1-(3-tert-butyl-1,2-isoxazol-5-yl)-1,5-dihydro-2H-pyrrol-2-one] | 100% | – | 100% | 100% | 100% | 100% | – | 100% | ++++ (inhibition≥90%) | 100% | 100% | 100% | 100% | 100% | 100% | – | – | 100% | 100% | Setaria viridis, herbicidal activity (Setaria viridis [2]; application rate 1280 g/ha): 100%; Lolium rigidum, herbicidal activity (Lolium rigidum [7]; application rate 1280 g/ha): 100%
CCC(=O)OC1C=C(C)C(=O)N1c1cc(C(C)(C)C)no1 (stereo not drawn) [I.6-290] | 100% | 90% | 100% | 100% | 100% | 100% | 90% | 90% | – | 100% | 100% | 100% | 100% | 100% | 100% | – | – | 90% | 100% | –
